According to the NIST ThermoML archive (doi:10.1021/je0500431):

Experiment: xn = mol fraction of the nth substance listed
Settings: Ring tensiometer

OCc1ccccc1 [benzenemethanol] + CC(C)O
surface tension liquid-gas [mN/m]
Settings	x2 = 0	x2 = 0.0029	x2 = 0.005	x2 = 0.0076	x2 = 0.0117	x2 = 0.0207	x2 = 0.0329	x2 = 0.0494
293.15 K	39.05	37.69	37.53	37.21	36.95	36.79	36.56	36.06
298.15 K	38.58	37.3	37.09	36.8	36.53	36.37	36.15	35.53
303.15 K	38.12	36.95	36.68	36.43	36.13	35.97	35.78	35.09
308.15 K	37.63	36.62	36.32	36.05	35.75	35.55	35.41	34.61
313.15 K	37.16	36.29	35.92	35.68	35.39	35.14	35.04	34.11
318.15 K	36.63	35.89	35.48	35.27	35.04	34.73	34.62	33.63
323.15 K	36.18	35.55	35.04	34.92	34.64	34.29	34.22	33.22

OCc1ccccc1 [benzenemethanol] + CCCCCO
surface tension liquid-gas [mN/m]
Settings	x2 = 0	x2 = 0.0037	x2 = 0.0052	x2 = 0.0083	x2 = 0.0117	x2 = 0.0213	x2 = 0.0336	x2 = 0.0536
293.15 K	39.05	36.88	36.73	36.56	36.35	35.93	35.63	35.22
298.15 K	38.58	36.41	36.34	36.12	35.93	35.5	35.21	34.76
303.15 K	38.12	36.05	35.92	35.73	35.5	35.05	34.79	34.31
308.15 K	37.63	35.64	35.51	35.28	35.1	34.64	34.35	33.8
313.15 K	37.16	35.26	35.1	34.86	34.69	34.24	33.95	33.34
318.15 K	36.63	34.86	34.7	34.47	34.29	33.82	33.52	32.95
323.15 K	36.18	34.47	34.31	34.03	33.89	33.4	33.08	32.43

CCCC(C)O (centres undefined) [pentan-2-ol] + OCc1ccccc1
x1 = 1
Settings	surface tension liquid-gas [mN/m]
293.15 K	23.7
298.15 K	23.28
303.15 K	22.87
308.15 K	22.43
313.15 K	22.04
318.15 K	21.6
323.15 K	21.16
